# Assays:
# [1] = test system: outside skin surface of the arm of a test panelist; experiment: Moisture retention of the skin after peeling off facial moisture mask (capacitance, Skin Analysis SHP88); assay type: in vivo, human; conditions: 5.0% in facial moisture mask; mask film peeled off after 15 minutes; 23°C, RH 65%
# [2] = test system: outside surface of the upper arm skin of a test panelist; experiment: Skin irritation patch test, Draize method; assay type: in vivo, human; conditions: 5.0% in facial moisture mask; patched 24 hours
# Source text: The small molecular weight γ-polyglutamate in […] with 200,000 to 400,000 daltons (designated as LM), high molecular weight γ-polyglutamate in Ca^++ form with 1.15x10^6 to 1.35x10^6 daltons (designated as HM), and γ-polyglutamate hydrogel (prepared from γ-polyglutamate in Na^+ form) with molecular weight from 15x10^6 to 100x10^6 or higher (cross-linked with gamma ray irradiation) were used as super moisturizers. The species and proportions of the ingredients contained in the exemplified facial moisture mask formulation are listed in Table 5. Table 5. Facial Moisture Mask Formulation
# The moisture mask samples of 25 cm^2 were taken from experimental example 4 and patched evenly on the outside surface of the upper arm skin of a test panelist. A group of 10 panelists participated in this test. After 24 hours, then the mask samples were removed and the skin was observed carefully for any degree of irritation, and the results were recorded according to Draize method (see Appraisel of the Safety of Chemicals in Food, Drugs and Cosmetics. Pharmacolo. 93:377-392, 1948, Draize, F. et al.). Table 6. The film formation time, capacity increase ratio (%), the pH value of the skin, and the Draize score after applying facial moisture masks
# Pig skin [3] = experiment: Ex-vivo pig skin: skin moisture retention by corneometry; conditions: 6.5% in skin moisture cream, 23°C and RH 60%
# Method: Table 9. Skin moisture cream formulation.
# Pig skin was used for this experiment. The skin moisture was measured at 23 °C under an environment of relative humidity (RH) of 60% with a probe of corneometer HM99 of Courage^+Khazaka Electronic Gmbh, Germany.
# Pig skin [4] = experiment: Ex-vivo pig skin: Trans-Epidermal-Water-Loss (TEWL); design: unit not given here; conditions: 6.5% in skin moisture cream
# tyrosinase = experiment: Inhibition of tyrosinase activity (absorbency at 475 nm); assay type: biochemical; conditions: 1.0% sample
# Source text: Although the formation of black pigment melanin on skin is complicated, it is generally realized that tyrosine is oxidized to DOPA (Dihydroxy Phenyalanine) by the catalysis of tyrosinase from melansome of melanocyte. The DOPA is further oxidized and finally converted into colored melanin-protein complex. The small molecular weight γ-polyglutamate in Na^+ form with 200,000 to 350,000 daltons (designated as LM) and high molecular weight γ-polyglutamate in Na^+ form with 1.15x10^6 to 1.35x10^6 daltons (designated as HM) were used in this experiment to determine the effectiveness in inhibiting the tyrosinase activity. • a. […] Sample of the reaction solution is then taken for measuring the absorbency at 475 nm, and recorded as At. • b. Determination of the blank absorbance of tyrosinase solutuion: • Replace 0.1 ml of buffer solution with tyrosinase solution, and repeat the same procedure in item (a), and record the absorbency at 475 nm as A1. • c. Replace 1 ml sample solution with buffer solution, and repeat the same procedure in item (a), and record the absorbance at 475 nm as Ab. • d. Determination of total blank absorbance of test solution: • Replace 1 ml sample solution with buffer solution, and 0.1 ml of tyrosinase solution with buffer solution, and repeat the procedure in item (a), and record the absorbency at 475 nm as Ao. • e. […]
# [5] = test system: outside skin surface of the panelist's arm; experiment: Skin moisturization by corneometer HM99 (ΔCU=CU2-CU1); assay type: in vivo, human; conditions: 2% in skin moisture cream
# Method: Table 7: Skin moisture cream formulation. The cosmetic products from experimental example 6 were evaluated for the effectiveness of skin moisturization. A group of 5 test panelists participated in this experiment. The panelists were first put in a room with a temperature at 22 °C and relative humidity (RH) 60% for 15 minutes. A probe of the corneometer HM99 of Courage^+Khazaka Electronic Gmbh, Germany was used to measure the skin moisture of the outside skin surface of the panelist's arm to determine the base line as (CU1). A sample of 0.2g from the formulation of experimental example 6 was evenly spread over an area of 25 cm^2 of the skin surface for 2 minutes before the excess formulation sample was removed. After 2 hours the skin moisture was measured again and recorded as (CU2). Before the measurement the panelists were placed in a room with temperature at 22 °C and RH 60% for 15 minutes. The atteration of skin moisture is then calculated as ΔCU=CU2-CU1.
# [6] = test system: inside skin surface of a test panelist's arm; experiment: Water retention on skin after skin vital moisture cream (capacitance, Skin Analysis SHP88); assay type: in vivo, human; conditions: 5% in skin vital moisture cream, 22°C and RH 65%
# Method: Table 2: Skin vital moisture cream formulation. […] A sample of 0.2g from each of the 5 products was evenly spread over an area of about 25 cm^2 on the inside skin surface of a test panelist's arm. A group of 10 panelists participated in this test. The water retention on the skin surface was measured at 23 °C under an environment of relative humidity of 60%, with a probe of Skin Analysis SHP88 made by Courage ^+Khazaka Electronic Gmbh, Germany. […] Table 3. The change of moisture retention over time after applying vital moisture creams, was expressed in terms of capacitance increase ratio, %, measured at 22°C and RH 65%.
smiles,measurement,setting,value
"CC(O)CCO (stereo not drawn) [1,3-BG, 1,3-Butyl Glycol]","Capacitance Increase Ratio, %",[1],73.2%
same,Draize Score,[2],0
OCC(O)CO [Glycerol],"Difference Corneometry, %",Pig skin [3]; Time 0 hour,48.. %
same,"Difference Corneometry, %",Pig skin [3]; Time 1 hour,32%
same,"Difference Corneometry, %",Pig skin [3]; Time 2 hour,20%
same,"Difference Corneometry, %",Pig skin [3]; Time 4 hour,17%
same,"Difference Corneometry, %",Pig skin [3]; Time -1 hour,100%
same,Trans-Epidermal-Water-Loss (TEWL),Pig skin [4]; Time 0 hour,21.0.
same,Trans-Epidermal-Water-Loss (TEWL),Pig skin [4]; Time 1 hour,19.5
same,Trans-Epidermal-Water-Loss (TEWL),Pig skin [4]; Time 2 hour,19.0
same,Trans-Epidermal-Water-Loss (TEWL),"Pig skin [4]; Time 2 hour, listed as glycerol",10.0
same,Trans-Epidermal-Water-Loss (TEWL),Pig skin [4]; Time 4 hour,17.5
same,Trans-Epidermal-Water-Loss (TEWL),Pig skin [4]; Time -1 hour,24.7
O=c1cc(CO)occ1O [Kojic Acid],"Inhibition of Tyrosinase Activity, %",tyrosinase,100.0%
C[N+](C)(C)CC(=O)O [Natural Betaine],Increase in Skin Moisture ΔCU,"[5]; after 2 hours, 22 °C, RH 60%",12.3
same,Relative ΔCU %,[5]; relative to 5% Glycerol = 100,164%
CC(O)CO (stereo not drawn) [Propylene Glycol],"Capacitance Increase Ratio, %",[6]; Time 0 min,0%
same,"Capacitance Increase Ratio, %",[6]; Time 5 min,105%
same,"Capacitance Increase Ratio, %",[6]; Time 10 min,57%
same,"Capacitance Increase Ratio, %",[6]; Time 20 min,51%
same,"Capacitance Increase Ratio, %",[6]; Time 40 min,40%
same,"Capacitance Increase Ratio, %",[6]; Time 80 min,38%
same,"Capacitance Increase Ratio, %",[6]; Time 120 min,36%
O=C1O[C@H]([C@@H](O)CO)C(O)=C1O [Vitamin C],"Inhibition of Tyrosinase Activity, %",tyrosinase,99.4%

# Source: EP1690525B1, “Gamma-polyglutamate hydrogels for use as super moisturizers in cosmetic and personal care products” (Tung Hai Biotechnology Corporation, priority 2005, dated 2006)
